This is an account of results in patent publication US11820766B2, “Monoacylglycerol lipase modulators” (Janssen Pharmaceutica NV, priority 2018, dated 2023).

Each structure is given as a SMILES string. pIC50: −log10 of the molar value.

The term pIC50 denotes the negative decadic logarithm of the IC50, by convention in mol/L. A high value points to a low IC50.

One assay deals with T1, human MGL from HeLa cells (Homo sapiens, UniProt Q99685).
T1 construct: combining endogenously expressed MGL from HeLa cells with test compounds; endogenous in cells; host or cells: HeLa cells / cell homogenates
T1 sequence (Q99685 1-303): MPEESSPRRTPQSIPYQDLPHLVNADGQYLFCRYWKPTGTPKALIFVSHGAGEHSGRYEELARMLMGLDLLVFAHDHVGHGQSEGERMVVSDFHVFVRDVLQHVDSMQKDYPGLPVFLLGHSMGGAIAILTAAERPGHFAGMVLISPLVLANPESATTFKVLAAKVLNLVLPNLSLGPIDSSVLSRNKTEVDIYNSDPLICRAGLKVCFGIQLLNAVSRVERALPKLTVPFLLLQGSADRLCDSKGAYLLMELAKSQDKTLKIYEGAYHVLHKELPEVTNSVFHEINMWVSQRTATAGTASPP
The experiment in a line: In vitro MGL activity assay: [glycerol-1,3-3H]-oleyl glycerol cleavage by MGL from HeLa cells. It counts as biochemical. To be noted: 300 nM [Glycerol-1,3-3H]-oleyl glycerol, one hour. The source says:
MGL is the predominant hydrolase in HeLa cells/cell homogenates.
Compound `C[C@H]1c2nn(C)c(-c3cc(F)c(F)c(F)c3)c2CCN1C(=O)c1c[nH]c2ccc(F)cc12` [Example 355, [(7S)-2,7-Dimethyl-3-(3,4,5-trifluorophenyl)-5,7-dihydro-4H-pyrazolo[3,4-c]pyridin-6-yl]-(5-fluoro-1H-indol-3-yl)methanone] showed a negative-log IC50 (pIC50) of 7.64. The same measure, in the same setting: in the case of `C[C@H]1c2nn(C)c(-c3cc(F)c(F)c(F)c3)c2CCN1C(=O)c1cnc2cccc(F)c2c1` [Example 545, [(7S)-2,7-Dimethyl-3-(3,4,5-trifluorophenyl)-5,7-dihydro-4H-pyrazolo[3,4-c]pyridin-6-yl]-(5-fluoro-3-quinolyl)methanone] it was 7.93. Still for that read-out and setting: in the case of `C[C@H]1c2nn(C)c(-c3cc(F)c(F)c(F)c3)c2CCN1C(=O)c1cc2n(n1)CCCO2` [Example 553, 6,7-Dihydro-5H-pyrazolo[5,1-b][1,3]oxazin-2-yl-[(7S)-2,7-dimethyl-3-(3,4,5-trifluorophenyl)-5,7-dihydro-4H-pyrazolo[3,4-c]pyridin-6-yl]methanone] it was 6.54. On the same count and under the same terms, in the case of `CCOc1ccc(-c2c3c(nn2C)[C@H](C)N(C(=O)c2ccc4ncccc4c2)CC3)cc1` [Example 497, [(7S)-3-(4-Ethoxyphenyl)-2,7-dimethyl-5,7-dihydro-4H-pyrazolo[3,4-c]pyridin-6-yl]-(6-quinolyl)methanone] it was 6.50; in that of `C[C@H]1c2nn(C)c(-c3ccc(F)cc3F)c2CCN1C(=O)c1ccc2ncccc2c1` [Example 502, [(7S)-3-(2,4-Difluorophenyl)-2,7-dimethyl-5,7-dihydro-4H-pyrazolo[3,4-c]pyridin-6-yl]-(6-quinolyl)methanone], 6.97. `Cc1cccc2ncc(C(=O)N3CCc4c(nn(C)c4-c4cc(F)c(F)c(F)c4)[C@@H]3C)n12` [Example 401, [(7S)-2,7-Dimethyl-3-(3,4,5-trifluorophenyl)-5,7-dihydro-4H-pyrazolo[3,4-c]pyridin-6-yl]-(5-methylimidazo[1,2-a]pyridin-3-yl)methanone] gave a pIC50 of 7.84.

Compound `COc1ccc(-c2c3c(nn2C)[C@H](C)N(C(=O)c2ccc4ncccc4c2)CC3)cn1` [Example 525, [(7S)-3-(6-Methoxy-3-pyridyl)-2,7-dimethyl-5,7-dihydro-4H-pyrazolo[3,4-c]pyridin-6-yl]-(6-quinolyl)methanone] gave a negative-log IC50 (pIC50) of 6.22. Still for that read-out and setting: the same measure for `C[C@H]1c2nn(C)c(-c3cc(F)c(F)c(F)c3)c2CCN1C(=O)c1cn(C)nc1C1(F)CC1` [Example 348, [(7S)-2,7-Dimethyl-3-(3,4,5-trifluorophenyl)-5,7-dihydro-4H-pyrazolo[3,4-c]pyridin-6-yl]-[3-(1-fluorocyclopropyl)-1-methyl-pyrazol-4-yl]methanone]: 6.07; for `C[C@H]1c2nn(C)c(-c3cc(F)cc(C(F)F)c3)c2CCN1C(=O)c1ccc2c(c1)OCCC2` [Example 610, Chroman-7-yl-[(7S)-3-[3-(difluoromethyl)-5-fluoro-phenyl]-2,7-dimethyl-5,7-dihydro-4H-pyrazolo[3,4-c]pyridin-6-yl]methanone]: 7.53. Same read-out and setting: in the case of `C[C@H]1c2nn(C)c(-c3cc(F)c(F)c(F)c3)c2CCN1C(=O)c1ccc2ncncc2c1` [Example 479, [(7S)-2,7-Dimethyl-3-(3,4,5-trifluorophenyl)-5,7-dihydro-4H-pyrazolo[3,4-c]pyridin-6-yl]-quinazolin-6-yl-methanone] it was 6.72; in that of `Cc1nc2c(C)cc(F)cn2c1C(=O)N1CCc2c(nn(C)c2-c2cc(F)c(F)c(F)c2)[C@@H]1C` [Example 408, [(7S)-2,7-Dimethyl-3-(3,4,5-trifluorophenyl)-5,7-dihydro-4H-pyrazolo[3,4-c]pyridin-6-yl]-(6-fluoro-2,8-dimethyl-imidazo[1,2-a]pyridin-3-yl)methanone], 7.57. Still for that read-out and setting: in the case of `C[C@H]1c2nn(C)c(-c3cc(F)c(F)c(F)c3)c2CCN1C(=O)c1ncn2ccccc12` [Example 420, [(7S)-2,7-Dimethyl-3-(3,4,5-trifluorophenyl)-5,7-dihydro-4H-pyrazolo[3,4-c]pyridin-6-yl]-imidazo[1,5-a]pyridin-1-yl-methanone] it was 7.23.

`Cc1c(C(=O)N2CCc3c(nn(C)c3-c3cc(F)c(F)c(F)c3)[C@@H]2C)nc2ccccn12` [Example 398, [(7S)-2,7-Dimethyl-3-(3,4,5-trifluorophenyl)-5,7-dihydro-4H-pyrazolo[3,4-c]pyridin-6-yl]-(3-methylimidazo[1,2-a]pyridin-2-yl)methanone] gave a negative-log IC50 (pIC50) of 6.61.

`C[C@H]1c2nn(C)c(-c3cc(F)c(F)c(F)c3)c2CCN1C(=O)c1cnc2[nH]ccc2c1` [Example 368, [(7S)-2,7-Dimethyl-3-(3,4,5-trifluorophenyl)-5,7-dihydro-4H-pyrazolo[3,4-c]pyridin-6-yl]-(1H-pyrrolo[2,3-b]pyridin-5-yl)methanone]: the pIC50 was 8.03.

Staying with this assay, now noted: 300 nM [Glycerol-1,3-3H]-oleyl glycerol, one hour incubation.
`C[C@H]1c2nn(C)c(-c3cc(F)cc(F)c3)c2CCN1C(=O)c1ccc(F)c(OCCF)c1` [Example 144, (S)-(3-(3,5-Difluorophenyl)-2,7-dimethyl-2,4,5,7-tetrahydro-6H-pyrazolo[3,4-c]pyridin-6-yl)(4-fluoro-3-(2-fluoroethoxy)phenyl)methanone] gave a pIC50 of 7.26. `Cc1ccc(C(=O)N2CCc3c(nn(C)c3-c3cc(F)c(F)c(F)c3)[C@@H]2C)cc1-n1cnnc1` [Example 294, [(7S)-2,7-Dimethyl-3-(3,4,5-trifluorophenyl)-5,7-dihydro-4H-pyrazolo[3,4-c]pyridin-6-yl]-[4-methyl-3-(1,2,4-triazol-4-yl)phenyl]methanone]: the pIC50 was 5.78. This pIC50 is 1.48 log units lower than that of the compound before.

`Cn1nc2c(c1-c1ccc(C(F)(F)F)s1)CCN(C(=O)c1ccc3ncccc3c1)C2` [Example 103, (2-Methyl-3-(5-(trifluoromethyl)thiophen-2-yl)-2,4,5,7-tetrahydro-6H-pyrazolo[3,4-c]pyridin-6-yl)(quinolin-6-yl)methanone] showed a negative-log IC50 (pIC50) of 6.58. The same measure, in the same setting: in the case of `Cn1nc2c(c1-c1ccccc1)CCN(C(=O)c1n[nH]c3c(Cl)cccc13)C2` [Example 69, (7-Chloro-1H-indazol-3-yl)(2-methyl-3-phenyl-2,4,5,7-tetrahydro-6H-pyrazolo[3,4-c]pyridin-6-yl)methanone] it was 6.18. The same measure, in the same setting: in the case of `Cn1nc2c(c1-c1ccccc1)CCN(C(=O)c1nc3ccccc3s1)C2` [Example 62, Benzo[d]thiazol-2-yl(2-methyl-3-phenyl-2,4,5,7-tetrahydro-6H-pyrazolo[3,4-c]pyridin-6-yl)methanone] it was 5.79; in that of `CNC(=O)c1cccc(C(=O)N2CCc3c(nn(C)c3-c3cc(F)c(F)c(F)c3)[C@@H]2C)c1` [Example 266, 3-[(7S)-2,7-Dimethyl-3-(3,4,5-trifluorophenyl)-5,7-dihydro-4H-pyrazolo[3,4-c]pyridine-6-carbonyl]-N-methyl-benzamide], 6.88. Same read-out and setting: in the case of `COc1cc(C(=O)N2CCc3c(nn(C)c3-c3cc(F)c(F)c(F)c3)[C@@H]2C)cnc1C` [Example 310, [(7S)-2,7-Dimethyl-3-(3,4,5-trifluorophenyl)-5,7-dihydro-4H-pyrazolo[3,4-c]pyridin-6-yl]-(5-methoxy-6-methyl-3-pyridyl)methanone] it was 7.02. For the compound `C[C@H]1c2nn(C)c(-c3cc(F)cc(Cl)c3)c2CCN1C(=O)c1ccc2nccnc2c1` [Example 181, (S)-(3-(3-Chloro-5-fluorophenyl)-2,7-dimethyl-2,4,5,7-tetrahydro-6H-pyrazolo[3,4-c]pyridin-6-yl)(quinoxalin-6-yl)methanone], the pIC50 is 8.20. Same read-out and setting: the same measure for `C[C@H]1c2nn(C)c(-c3cccc(Cl)c3)c2CCN1C(=O)c1ccc2[nH]c(=O)oc2c1` [Example 124, (S)-6-(3-(3-Chlorophenyl)-2,7-dimethyl-4,5,6,7-tetrahydro-2H-pyrazolo[3,4-c]pyridine-6-carbonyl)benzo[d]oxazol-2(3H)-one]: 7.71; for `C[C@H]1c2nn(C)c(-c3cc(F)cc(F)c3)c2CCN1C(=O)c1cc(OCCF)ccc1Cl` [Example 146, (2-Chloro-5-(2-fluoroethoxy)phenyl)(3-(3,5-difluorophenyl)-2,7-dimethyl-2,4,5,7-tetrahydro-6H-pyrazolo[3,4-c]pyridin-6-yl)methanone]: 8.43; for `Cn1nc2c(c1C1CC1)CCN(C(=O)c1cccc(Cl)c1Cl)C2` [Example 2, (3-Cyclopropyl-2-methyl-2,4,5,7-tetrahydro-6H-pyrazolo[3,4-c]pyridin-6-yl)(2,3-dichlorophenyl)methanone]: 5.34. `Cn1nc2c(c1-c1ccccc1)CCN(C(=O)c1cccc(OC(F)F)n1)C2` [Example 24, (6-(Difluoromethoxy)pyridin-2-yl)(2-methyl-3-phenyl-2,4,5,7-tetrahydro-6H-pyrazolo[3,4-c]pyridin-6-yl)methanone] showed a pIC50 of 5.59. On the same count and under the same terms, the same measure for `COc1cccc(OC)c1C(=O)N1CCc2c(nn(C)c2-c2ccccc2)C1` [Example 10, (2,6-Dimethoxyphenyl)(2-methyl-3-phenyl-2,4,5,7-tetrahydro-6H-pyrazolo[3,4-c]pyridin-6-yl)methanone]: below 5.00; for `C[C@@H]1c2nn(C)c(-c3cc(F)cc(F)c3)c2CCN1C(=O)c1cnc2ccoc2c1` [Example 154, (R)-(3-(3,5-Difluorophenyl)-2,7-dimethyl-2,4,5,7-tetrahydro-6H-pyrazolo[3,4-c]pyridin-6-yl)(furo[3,2-b]pyridin-6-yl)methanone]: 5.18. On the same count and under the same terms, the same measure for `Cn1nc2c(c1-c1ccccc1)CCN(C(=O)c1ccc3[nH]cnc3c1)C2` [Example 71, (1H-Benzo[d]imidazol-5-yl)(2-methyl-3-phenyl-2,4,5,7-tetrahydro-6H-pyrazolo[3,4-c]pyridin-6-yl)methanone]: 6.00.
